Measured values taken from publication PMC7150870 (Toxins, 2020).
Where two headings read alike, the source gives them in different places. Marks after values point to notes of the source that are not given here.

Experiments:
[1] = tested on: HEK293T cells; type: cell-based, human
[2] = 5.2–15.5 mM; cited from earlier work
[3] = tested on: HEK 293T cells
[4] = tested on: hepatocyte cells; details: cited from earlier work
[5] = tested on: Caco-2 cells
[6] = tested on: human fibroblasts; details: 50 µM for 24 h; cited from earlier work
[7] = tested on: HEK 293T cells; type: cell-based, human
[8] = tested on: TNF-α; details: cited from earlier work
[9] = tested on: HepG2; type: cell-based, human
[10] = tested on: various mammalian cells; details: cited from earlier work
[11] = tested on: epithelial cell layers; details: cited from earlier work
[12] = tested on: HepG2, Caco-2, RAW 264.7, and HEK 293T cells; details: read-out: IC50 range in studied cells
[13] = molecular target: T1, P-gp (Homo sapiens, UniProt P08183)
[14] = tested on: Caco-2; type: cell-based, human
[15] = tested on: RAW 264.7; type: cell-based, mouse
[16] = tested on: HEK293T; type: cell-based, human
[17] = molecular target: T1, P-gp; details: cited from earlier work
[18] = in vitro; details: human (HepG2, Caco-2, HEK 293T); mouse (RAW 264.7)
[19] = tested on: HEK293T; type: cell-based, human; remark: listed apart in the source
[20] = tested on: cells; details: cited from earlier work
[21] = tested on: HEK293 cells; details: for 2 h; cited from earlier work
[22] = human (Caco-2), mouse (RAW 264.7)

T1 sequence (P08183 whole entry, looked up): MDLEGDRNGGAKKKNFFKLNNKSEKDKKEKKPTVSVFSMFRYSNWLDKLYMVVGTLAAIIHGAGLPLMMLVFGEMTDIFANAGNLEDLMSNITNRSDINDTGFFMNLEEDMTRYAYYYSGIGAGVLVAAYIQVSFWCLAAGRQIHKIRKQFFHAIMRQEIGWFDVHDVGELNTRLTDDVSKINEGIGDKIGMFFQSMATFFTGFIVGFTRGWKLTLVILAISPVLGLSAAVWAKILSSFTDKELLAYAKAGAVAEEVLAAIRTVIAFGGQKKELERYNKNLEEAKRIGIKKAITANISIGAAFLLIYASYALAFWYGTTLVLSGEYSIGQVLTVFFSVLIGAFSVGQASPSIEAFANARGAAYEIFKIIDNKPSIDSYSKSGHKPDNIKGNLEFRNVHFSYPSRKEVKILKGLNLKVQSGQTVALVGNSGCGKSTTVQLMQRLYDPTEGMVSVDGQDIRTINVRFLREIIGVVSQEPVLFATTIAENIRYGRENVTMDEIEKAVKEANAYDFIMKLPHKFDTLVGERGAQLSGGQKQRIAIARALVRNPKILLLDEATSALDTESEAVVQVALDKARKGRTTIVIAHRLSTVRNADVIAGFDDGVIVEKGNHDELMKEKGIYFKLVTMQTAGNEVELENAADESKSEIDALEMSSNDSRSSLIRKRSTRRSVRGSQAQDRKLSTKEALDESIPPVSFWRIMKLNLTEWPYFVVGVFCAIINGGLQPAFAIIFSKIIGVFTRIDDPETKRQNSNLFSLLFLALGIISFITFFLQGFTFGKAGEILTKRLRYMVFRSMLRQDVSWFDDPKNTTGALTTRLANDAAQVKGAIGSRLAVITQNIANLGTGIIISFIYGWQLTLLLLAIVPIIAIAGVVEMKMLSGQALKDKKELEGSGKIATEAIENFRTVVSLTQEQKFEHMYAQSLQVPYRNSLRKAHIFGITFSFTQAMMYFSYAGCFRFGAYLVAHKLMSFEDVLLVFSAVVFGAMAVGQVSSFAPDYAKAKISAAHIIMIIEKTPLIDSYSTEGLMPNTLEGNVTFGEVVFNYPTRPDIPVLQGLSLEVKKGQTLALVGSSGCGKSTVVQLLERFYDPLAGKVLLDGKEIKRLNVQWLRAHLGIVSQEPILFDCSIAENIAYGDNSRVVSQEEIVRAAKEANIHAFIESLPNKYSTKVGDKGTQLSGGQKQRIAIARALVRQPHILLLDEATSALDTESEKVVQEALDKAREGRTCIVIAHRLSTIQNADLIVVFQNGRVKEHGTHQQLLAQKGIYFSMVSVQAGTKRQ

With `COc1cc(C2Oc3cc([C@H]4Oc5cc(O)cc(O)c5C(=O)[C@@H]4O)ccc3OC2CO)ccc1O` (some centres unmarked) [Silibinin, silibinin, reference compound] as the compound, how does the “reduction of cell viability by sole silibinin treatment” value [1] read?
The value was 45%.

And the “amount of DNA in the comet tail compared to positive control” value [2]?
The value was “reduced the amount of DNA in the comet tail”.

And the “percentage of DNA in comet tail with respect to the negative control” value [3]?
Its value is “did not induce genotoxic effects”.

And the “effect against OTA cytotoxicity” value [4]?
Its value is “protective effect”.

And the “metabolites found by non-target U-HPLC-MS analysis” value [5]?
The value was “sulfate derivative”.

And the “transepithelial transport, Apical Medium” value [5, 22]?
Its value is 44.34 ± 1.96^cd %.

And the “transepithelial transport, Basolateral Medium” value [5, 22]?
The value was 23.24 ± 1.79^de %.

And the “transepithelial transport, Caco-2 Cells” value [5, 22]?
Its value is 0.00 ± 0.00^a %.

And the “transepithelial transport, Raw 264.7 Cells” value [5, 22]?
The value was 0.00 ± 0.00^a %.

What about the “transepithelial transport, Total” value [5, 22] of the same compound?
Its value is 67.58 ± 2.95^cd %.

And the cytotoxic effect [6]?
The cytotoxic effect was “no significant cytotoxic effect”.

What about the “decrease of cell viability compared to cells cultured with a single mycotoxin” value [7] of the same compound?
Its value is “about 30%”.

And the “OTA-induced TNF-α level reduced to” value [8]?
Its value is 70%.

And the “doses completely blocking OTA-induced TNF-α” value [8]?
The value was 1 to 26 µM.

For `CC(=O)OC[C@]12C[C@H](OC(=O)CC(C)C)C(C)=C[C@H]1O[C@@H]1[C@H](O)[C@@H](OC(C)=O)[C@@]2(C)[C@]12CO2` [T-2, T-2 toxin], which IC50 [9] is on record?
The IC50 was 11.4 ± 0.37 nM.

And the IC50 [10]?
The IC50 was 3 to 500 nM.

What about the “transport through the epithelial cell layers” value [11] of the same compound?
Its value is no more than 24%.

And the IC50 ([1]; read-out: IC50 halving the HEK293T cells viability)?
The IC50 was 7 nM.

What about the IC50 [12] of the same compound?
Its IC50 is 3.57 to 13.4 nM.

And the “P-gp activation (ATP consumption)” value [13]?
The value was “activated P-gp in dose-dependent manner”.

What about the “metabolites found by non-target U-HPLC-MS analysis” value [5] of the same compound?
The value was 3´-hydroxy, 3-hydroxy-15-deacetyl.

What about the “transepithelial transport, Apical Medium” value [5] of the same compound?
The value was 11.63 ± 0.62^a %.

And the “transepithelial transport, Basolateral Medium” value [5]?
The value was 28.13 ± 0.48^e %.

And the “transepithelial transport, Caco-2 Cells” value [5]?
The value was 0.01 ± 0.00^a %.

What about the “transepithelial transport, Raw 264.7 Cells” value [5] of the same compound?
The value was 0.01 ± 0.00^a %.

And the “transepithelial transport, Total” value [5]?
Its value is 39.77 ± 0.98^b %.

What about the IC50 [14] of the same compound?
The IC50 was 13.4 ± 1.07 nM.

And the IC50 [15]?
The IC50 was 3.57 ± 0.27 nM.

And the IC50 [16]?
The IC50 was 3.87 ± 0.27 nM.

What about the “combination index, silibinin 3.4 µM” value [7] of the same compound?
The value was 0.99 ± 0.02 Add.

And the “combination index, silibinin 6.8 µM” value [7]?
The value was 1.46 ± 0.14 Ant.

And the “combination index, silibinin 13.6 µM” value [7]?
Its value is 1.82 ± 0.06 Ant.

What about the “combination index, silibinin 27.3 µM” value [7] of the same compound?
The value was 1.41 ± 0.11 Ant.

And the “combination index, silibinin 54.5 µM” value [7]?
The value was 0.91 ± 0.04 Add.

What about the “combination index, silibinin 109.00 µM” value [7] of the same compound?
Its value is 1.00 ± 0.08 Add.

And the “silibinin pretreatment concentration with the strongest antagonism” value [7]?
The value was 13.6 µM.

What about the “type of interaction, silibinin 3.4 µM” value [7] of the same compound?
Its value is 0.99 ± 0.02 Add (key: Syn: Combination index (CI) < 0.9; Add: 0.9 ≤ CI ≤ 1; Ant: CI > 1).

What about the “type of interaction, silibinin 6.8 µM” value [7] of the same compound?
Its value is 1.46 ± 0.14 Ant (key: Syn: Combination index (CI) < 0.9; Add: 0.9 ≤ CI ≤ 1; Ant: CI > 1).

What about the “type of interaction, silibinin 13.6 µM” value [7] of the same compound?
Its value is 1.82 ± 0.06 Ant (key: Syn: Combination index (CI) < 0.9; Add: 0.9 ≤ CI ≤ 1; Ant: CI > 1).

And the “type of interaction, silibinin 27.3 µM” value [7]?
The value was 1.41 ± 0.11 Ant (key: Syn: Combination index (CI) < 0.9; Add: 0.9 ≤ CI ≤ 1; Ant: CI > 1).

What about the “type of interaction, silibinin 54.5 µM” value [7] of the same compound?
Its value is 0.91 ± 0.04 Add (key: Syn: Combination index (CI) < 0.9; Add: 0.9 ≤ CI ≤ 1; Ant: CI > 1).

What about the “type of interaction, silibinin 109.00 µM” value [7] of the same compound?
The value was 1.00 ± 0.08 Add (key: Syn: Combination index (CI) < 0.9; Add: 0.9 ≤ CI ≤ 1; Ant: CI > 1).

What about the P-gp substrate [17] of the same compound?
Its P-gp substrate is “not a substrate of P-gp”.

Which IC50 [18] does the source give for `C[C@H]1CCCC(=O)CCC/C=C/c2cc(O)cc(O)c2C(=O)O1` [ZEA, zearalenone] here?
The IC50 was greater than 50 nM.

And the “combination index, mixture of DAS (6.58 nM)” value [19]?
Its value is 0.85 ± 0.07 Syn.

And the “combination index, mixture of HT-2 (21.22 nM)” value [19]?
The value was 0.83 ± 0.03 Syn.

What about the “combination index, mixture of T-2 (3.87 nM)” value [19] of the same compound?
The value was 0.92 ± 0.01 Add.

What about the “type of interaction, mixture of DAS (6.58 nM)” value [19] of the same compound?
The value was 0.85 ± 0.07 Syn (key: Syn: Combination index (CI) < 0.9; Add: 0.9 ≤ CI ≤ 1; Ant: CI > 1).

What about the “type of interaction, mixture of HT-2 (21.22 nM)” value [19] of the same compound?
Its value is 0.83 ± 0.03 Syn (key: Syn: Combination index (CI) < 0.9; Add: 0.9 ≤ CI ≤ 1; Ant: CI > 1).

What about the “type of interaction, mixture of T-2 (3.87 nM)” value [19] of the same compound?
The value was 0.92 ± 0.01 Add (key: Syn: Combination index (CI) < 0.9; Add: 0.9 ≤ CI ≤ 1; Ant: CI > 1).

And the “percentage of DNA in comet tail with respect to the negative control” value [3]?
The value was “no significant DNA damage”.

What about the “P-gp activation (ATP consumption)” value [13] of the same compound?
Its value is “activated P-gp in dose-dependent manner”.

And the “transepithelial transport, Apical Medium” value [5, 22]?
Its value is 32.23 ± 1.71^bc %.

What about the “transepithelial transport, Basolateral Medium” value [5, 22] of the same compound?
The value was 54.24 ± 2.38^gh %.

What about the “transepithelial transport, Caco-2 Cells” value [5, 22] of the same compound?
Its value is 0.19 ± 0.01^ab %.

What about the “transepithelial transport, Raw 264.7 Cells” value [5, 22] of the same compound?
The value was 0.05 ± 0.01^a %.

What about the “transepithelial transport, Total” value [5, 22] of the same compound?
Its value is 86.70 ± 0.67^de %.

And the “concentration with statistically significant decrease in viability of cells” value [20]?
The value was 25 µM.

What about the “concentration range damaging DNA in a concentration-dependent manner” value [21] of the same compound?
The value was 2500 to 20000 nM.
